Calls of active or inactive are those of the source.

Data set [1] relates to Mus musculus. Description: Antidepressant activity in mouse assessed as potentiation of (+/-)-dopa-induced motor responses at 5 mg/kg, po administered 4 hrs before dopa challenge. On the set-up: dose 5 mg/kg. It is filed as functional, organism-based.
Data set [2] has as its system Mus musculus. The data set is described as follows: Tranquilizer activity in albino BALB/cJ mouse assessed as reduction in footshock-induced fighting behavior at 10 mg/kg, po after 90 mins. On the set-up: scale not given: the % may be the effect or the level left. It is filed as functional.
Data set [3] has as its system Rattus norvegicus. The data set is described as follows: Spontaneous motor activity in Long-Evans rat at 5 mg/kg measured up to 2 hrs relative to control. It is filed as functional.
The subject of data set [4] is Mus musculus. Description: Antinociceptive activity in po dosed mouse assessed as inhibition of acetic acid-induced writhing administered 30 mins before acetic acid challenge measured after 5 to 20 mins. It is filed as functional.
Data set [5] concerns Canis familiaris. Description: Toxicity in beagle-like dog assessed as reduced reactivity with ataxia observed for 24 hrs at 1 mg/kg, po single dose. It is filed as organism-based, Canis lupus familiaris. On the set-up: dose 1 mg/kg, route oral. The note with it: in vivo.
A short description of data set [6]: Toxicity in po dosed mouse. It is filed as organism-based. The conditions noted are these: in vivo.
The test system of data set [7] is Mus musculus. The data set is described as follows: Tranquilizer activity in albino BALB/cJ mouse assessed as reduction in footshock-induced fighting behavior at 5 mg/kg, po after 90 mins. It is filed as functional. On the set-up: scale not given: the % may be the effect or the level left.
The species named for data set [8] is Mus musculus. The data set is described as follows: Analgetic activity in mouse by hot-plate test. It is filed as functional. For orientation: In hot-plate and tail-flick tests a longer latency is read as antinociception.
For data set [9], the system named is Canis familiaris. The data set is described as follows: Toxicity in beagle-like dog assessed as reduced reactivity with ataxia observed for 24 hrs at 10 mg/kg, po single dose. It is filed as organism-based, Canis lupus familiaris. On the set-up: dose 10 mg/kg, route oral. The note with it: in vivo.
Data set [10] deals with Canis familiaris. Description: Toxicity in beagle-like dog assessed as reduced reactivity with ataxia observed for 24 hrs at 0.1 mg/kg, po single dose. It is filed as organism-based, Canis lupus familiaris. On the set-up: dose 0.1 mg/kg, route oral. The note with it: in vivo.
In data set [11] the test system is Rattus norvegicus. The data set is described as follows: Antihypertensive activity in spontaneous hypertensive rat assessed as reduction of blood pressure at 10 mg/kg, po after 4 hrs. It is filed as functional. Also on record: scale not given: the % may be the effect or the level left.
Data set [12] has as its system Rattus norvegicus. Description: Antihypertensive activity in spontaneous hypertensive rat assessed as reduction of blood pressure at 10 mg/kg, po after 24 hrs. Also on record: scale not given: the % may be the effect or the level left. It is filed as functional.
In another data set the test system is Felis catus. Description: Sedative-hypnotic activity in po dosed cat assessed as rapid eye movement sleep. It is filed as functional, organism-based.
For data set [13], the system named is Rattus norvegicus. The data set is described as follows: Analgetic activity in po dosed Sprague-Dawley rat assessed as pain threshold after 15 to 90 mins by tail-flick test. It is filed as functional.
In data set [14] the test system is Rattus norvegicus. The data set is described as follows: Antihypertensive activity in spontaneous hypertensive rat assessed as reduction of blood pressure at 10 mg/kg, po after 48 hrs. It is filed as functional. On the set-up: scale not given: the % may be the effect or the level left.
Data set [15] concerns Rattus norvegicus. Description: Spontaneous motor activity in Long-Evans rat at 10 mg/kg measured up to 2 hrs relative to control. It is filed as functional.

`CCCCCC(C)C(C)c1cc(OC(=O)CCCN2CCCCC2)c2c(c1)OC(C)(C)C1=C2CCS1.Cl` (stereo unspecified): the result in the data set with Mus musculus [1] was Active. Moreover, the Activity is on record as 33% in the data set with Mus musculus [2], 1% in the data set on Rattus norvegicus [3] and “Non-toxic” in the data set with Canis familiaris [5]. For the same compound, the ED50 with Mus musculus [4] was 24 mg/kg. This compound returned an LD50 in [6] of more than 300 mg/kg.

Take `CCCCCC(C)C(C)c1cc(OC(=O)CCCN2CCCCC2)c2c(c1)OC(C)(C)C1=C2CCCS1.Cl` (stereo unspecified): in the data set with Mus musculus [1], the outcome was Active. The Activity in the data set with Mus musculus [7] turned out to be 1%; with Rattus norvegicus [3], 66%. In addition, in the data set on Mus musculus [4], the ED50 worked out at 14.7 mg/kg. Moreover, in data set [6], the LD50 is more than 300 mg/kg.

Regarding `CCCCCC(C)C(C)c1cc(O)c2c(c1)OC(C)(C)C1=C2CSC1` (stereo unspecified), in the data set with Mus musculus [1], the outcome was Active. The Activity with Mus musculus [2] was 33%; in the data set with Rattus norvegicus [3], 1%; with Canis familiaris [9], “Toxic”. The ED50 in the data set on Mus musculus [4] is 51.7 mg/kg; in the data set listed under Mus musculus [8], more than 120 mg/kg. This compound gave an LD50 in data set [6] of more than 300 mg/kg.

As to `CCCCCC(C)C(C)c1cc(O)c2c(c1)OC(C)(C)C1=C2CCS1` (stereo unspecified), the result with Mus musculus [1] and with Felis catus was Active. Moreover, the Activity with Mus musculus [7] is on record as 1%; with Mus musculus [2], 33%; in the data set on Rattus norvegicus [3], 1%; in the data set on Canis familiaris [10], “Toxic”; in the data set with Rattus norvegicus [11] it was 17%; with Rattus norvegicus [12], 2%. Besides, the ED50 in the data set with Mus musculus [4] worked out at 71.8 mg/kg; in the data set filed under Mus musculus [8], 12.1 mg/kg. For the same compound, the LD50 in data set [6] was more than 300 mg/kg.

Turning to `CCCCCC(C)C(C)c1cc(O)c2c(c1)OC(C)(C)C1=C2CCCS1` (stereo unspecified) [TINABINOL], the outcome in the data set on Mus musculus [1] was Active. Besides, the Activity with Mus musculus [2] is 1%; with Rattus norvegicus [3], 1%; in the data set with Canis familiaris [5] it was “Toxic”; in the data set with Rattus norvegicus [11] it was 15%; in the data set with Rattus norvegicus [12], 28%; with Rattus norvegicus [14], 19%. In addition, the ED50 amounted to 8.6 mg/kg in the data set with Mus musculus [4], 2.7 mg/kg in the data set on Rattus norvegicus [13] and 5.7 mg/kg in the data set listed under Mus musculus [8]. Moreover, the LD50 in [6] was more than 300 mg/kg. Also, the result with Felis catus was inactive.

`CCCCCC(C)C(C)c1cc(O)c2c(c1)OC(C)(C)C1=C2CCSC1` (stereo unspecified): in the data set on Mus musculus [1], the result was Active. Moreover, the Activity in the data set on Mus musculus [7] is 1%; in the data set on Rattus norvegicus [15], 1%; in the data set with Canis familiaris [9], “Toxic”. Moreover, the ED50 in the data set with Mus musculus [4] and in the data set listed under Mus musculus [8] was more than 40 mg/kg throughout. Besides, the LD50 in [6] was more than 300 mg/kg.

Regarding `CCCCCC(C)C(C)c1cc(OC(=O)CCCN2CCOCC2)c2c(c1)OC(C)(C)C1=C2CCS1.Cl` (stereo unspecified), in the data set with Mus musculus [1], the outcome was Active. Also, the Activity in the data set on Mus musculus [7] is 1%; with Mus musculus [2] it was 33%; in the data set with Rattus norvegicus [3], 1%; in the data set on Canis familiaris [5], “Non-toxic”. This compound displayed an ED50 in the data set filed under Mus musculus [8] of more than 50 mg/kg. In [6], the LD50 is more than 300 mg/kg.

As to `CCCCCC(C)C(C)c1cc(O)c2c(c1)OC(C)(C)c1sccc1-2` (stereo unspecified), the result in the data set with Mus musculus [1] was Active. The Activity with Mus musculus [2] and in the data set on Rattus norvegicus [3] was 1% throughout. Besides, the ED50 with Mus musculus [4] was more than 10 mg/kg. In [6], this compound displayed an LD50 of more than 300 mg/kg.

For `CCCCCC(C)C(C)c1cc(OC(=O)C(C)CCN2CCOCC2)c2c(c1)OC(C)(C)C1=C2CCCS1.Cl.O` (stereo unspecified), the outcome in the data set on Mus musculus [1] was Active. The Activity is given as 66% in the data set with Mus musculus [2] and 1% with Rattus norvegicus [3]. The ED50 in the data set on Mus musculus [4] was found to be 22.6 mg/kg. The LD50 in data set [6] is more than 300 mg/kg. Besides, the result with Felis catus was inactive.

By ED50 is commonly meant the midpoint of the dose-response relation. What is called LD50 is the dose expected to kill half of the subjects tested.

Values taken from ChEMBL document CHEMBL3271949, “Drugs derived from cannabinoids. 3. Sulfur analogs, thiopyranobenzopyrans and thienobenzopyrans” (J Med Chem, 1976).
